Laboratory results from the NIST ThermoML archive (doi:10.1021/je060271a).

Conditions: 303.15 K, Liquid, Vibrating tube method

CCCCCC(=O)OCC(COC(=O)CCCCC)(COC(=O)CCCCC)COC(=O)CCCCC [pentaerythritol tetrahexanoate]
Conditions | mass density [kg/m3]
7039.5 kPa | 992.8
7057.3 kPa | 992.9
7079.2 kPa | 992.9
7097.5 kPa | 992.8
7116 kPa | 992.9
7134.1 kPa | 992.9
7155.9 kPa | 992.9
7174.4 kPa | 992.9
7192.5 kPa | 993
7214.4 kPa | 993
7232.7 kPa | 993
7251.4 kPa | 992.9
7273.7 kPa | 993
7292.3 kPa | 993
7310.6 kPa | 993
7333.2 kPa | 993
7352.4 kPa | 993
7371.4 kPa | 993.1
7394.2 kPa | 993.1
7413.2 kPa | 993
7432.5 kPa | 993.1
7451.7 kPa | 993.1
7474.8 kPa | 993.1
7494.2 kPa | 993.1
7513.5 kPa | 993.1
7533.2 kPa | 993.2
7556.5 kPa | 993.2
7576.2 kPa | 993.2
7596.7 kPa | 993.2
7616.7 kPa | 993.2
7640.5 kPa | 993.3
7660.7 kPa | 993.2
7680.6 kPa | 993.3
7700.8 kPa | 993.4
7724.8 kPa | 993.2
7744.8 kPa | 993.2
7765.4 kPa | 993.3
7785.7 kPa | 993.3
7809.9 kPa | 993.4
7830.6 kPa | 993.4
7851.3 kPa | 993.3
7876.2 kPa | 993.3
7897.2 kPa | 993.3
7917.7 kPa | 993.4
7938.5 kPa | 993.5
7963.1 kPa | 993.4
7984.2 kPa | 993.4
8005.2 kPa | 993.6
8026.6 kPa | 993.4
8051.8 kPa | 993.5
8072.9 kPa | 993.6
8094.6 kPa | 993.3
8120 kPa | 993.5
8141.2 kPa | 993.6
8163.1 kPa | 993.5
8186 kPa | 993.6
8208.3 kPa | 993.6
8233.8 kPa | 993.6
8255.4 kPa | 993.6
8277.5 kPa | 993.6
8303.5 kPa | 993.7
8325.2 kPa | 993.6
8347.2 kPa | 993.7
8373.2 kPa | 993.7
8395.6 kPa | 993.7
8417.7 kPa | 993.7
8440.3 kPa | 993.7
8467.9 kPa | 993.8
8491.4 kPa | 993.8
8513.6 kPa | 993.8
8536.1 kPa | 993.9
8563.5 kPa | 993.6
